# Reference: patent US11618747B2, “LXR modulators with bicyclic core moiety” (OrsoBio, Inc., priority 2018, dated 2023)
# Experiments:
# [1] = target: T1, full length (FL) LXRα (Homo sapiens, UniProt Q13133); assay: LXR Gal4 reporter transient transfection assay (FL-M2H Gal4α); type: cell-based; conditions: HEK293 cells, full length LXRα; read-out: FL-M2H Gal4α (EC50 range)
# T1 construct: the full length (FL) proteins of LXRα (amino acids 1-447); NP005684; expressed in transfected cells; host or cells: HEK293
# T1 sequence (Q13133 1-447): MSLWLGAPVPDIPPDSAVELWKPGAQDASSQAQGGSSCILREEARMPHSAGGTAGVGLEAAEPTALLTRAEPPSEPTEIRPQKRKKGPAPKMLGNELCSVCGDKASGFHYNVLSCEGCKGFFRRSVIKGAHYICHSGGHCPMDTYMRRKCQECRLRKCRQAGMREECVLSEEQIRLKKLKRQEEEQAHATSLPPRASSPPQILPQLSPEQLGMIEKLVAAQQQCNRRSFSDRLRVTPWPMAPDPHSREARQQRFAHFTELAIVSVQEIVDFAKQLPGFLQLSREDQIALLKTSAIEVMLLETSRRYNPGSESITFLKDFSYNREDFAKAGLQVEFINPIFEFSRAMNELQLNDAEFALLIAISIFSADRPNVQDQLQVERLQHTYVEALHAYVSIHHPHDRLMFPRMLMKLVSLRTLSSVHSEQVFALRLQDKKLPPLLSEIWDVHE
# Method: (§1) The tested compounds were usually dissolved, tested and stored as 20 mM stock solutions in DMSO. Since sulfonyl acetic acid derivatives tend to decarboxylate under these conditions, these stock solutions were prepared, tested and stored as 20 mM DMSO stock solutions containing 100 mM trifluoroacetic Acid (5 equivalents). Sulfonyl acetic acid derivatives are shelf stable as solid at rt for long time as reported by Griesbrecht et al. (Synlett 2010:374) or Faucher et al. (J. Med. Chem. 2004; 47:18).
# (§2) LXR Gal4 Reporter Transient Transfection Assays
# (§3) LXRα and LXRβ activity status was determined via detection of interaction with coactivator and corepressor proteins in mammalian two-hybrid experiments (M2H). For this, via transient transfection the full length (FL) proteins of LXRα (amino acids 1-447; NP005684; SEQ ID NO:1) or LXRβ-(amino acids 1-461; NP009052; SEQ ID NO:2) or the ligand-binding domains (LBD) of LXRα (amino acids 155-447 SEQ ID NO:3) or LXRβ (amino acids 156-461; SEQ ID NO:4) were expressed from pCMV-AD (Stratagene) as fusions to the transcriptional activation domain of NFkB. As cofactors, domains of either the steroid receptor coactivator 1 (SRC1; amino acids 552-887; SEQ ID NO:5) or of the corepressor NCoR (amino acids 1906-2312; NP006302; SEQ ID NO:6) were expressed as fusions to the DNA binding domain of the yeast transcription factor GAL4 (from pCMV-BD; Stratagene). Interaction was monitored via activation of a coexpressed Firefly Luciferase Reporter gene under control of a promoter containing repetitive GAL4 response elements (vector pFRLuc; Stratagene). Transfection efficiency was controlled via cotransfection of constitutively active pRL-CMV Renila reniformis luciferase reporter (Promega). HEK293 cells were grown in minimum essential medium (MEM) with 2 mM L-glutamine and Earle's balanced salt solution supplemented with 8.3% fetal bovine serum, 0.1 mM non-essential amino acids, 1 mM sodium pyruvate, at 37° C. in 5% CO2. 3.5×10^4 cells/well were plated in 96-well cell culture plates in growth medium supplemented with 8.3% fetal bovine serum for 16-20 h to ˜90% confluency. For transfection, medium was taken off and LXR and cofactor expressing plasmids as well as the reporter plasmids are added in 30 μL OPTIMEM/well including polyethylene-imine (PEI) as vehicle. Typical amounts of plasmids transfected/well: pCMV-AD-LXR (5 ng), pCMV-BD-cofactor (5 ng), pFR-Luc (100 ng), pRL-CMV (0.5 ng). Compound stocks were prepared in DMSO, prediluted in MEM to a total volume of 120 μL, and added 4 h after addition of the transfection mixture (final vehicle concentration not exceeding 0.2%). Cells were incubated for additional 16 h, lysed for 10 min in 1× Passive Lysis Buffer (Promega) and Firefly and Renilla luciferase activities were measured sequentially in the same cell extract using buffers containing D-luciferine and coelenterazine, respectively. Measurements of luminescence were done in a BMG-luminometer.
# [2] = target: T2, LXRβ ligand-binding domain (Homo sapiens, UniProt P55055, DUP175-175); assay: TR-FRETβ activity assay (NCoA3 coactivator peptide recruitment); type: biochemical; conditions: TR-FRET, 1 μM 24(S)-25-epoxycholesterol prestimulation; read-out: FRETβ (EC50 range)
# T2 construct: amino acids 156-461; NP009052; made in house; host or cells: E. coli
# T2 sequence (P55055 with tags, fused parts or gaps DUP175-175 limits assumed): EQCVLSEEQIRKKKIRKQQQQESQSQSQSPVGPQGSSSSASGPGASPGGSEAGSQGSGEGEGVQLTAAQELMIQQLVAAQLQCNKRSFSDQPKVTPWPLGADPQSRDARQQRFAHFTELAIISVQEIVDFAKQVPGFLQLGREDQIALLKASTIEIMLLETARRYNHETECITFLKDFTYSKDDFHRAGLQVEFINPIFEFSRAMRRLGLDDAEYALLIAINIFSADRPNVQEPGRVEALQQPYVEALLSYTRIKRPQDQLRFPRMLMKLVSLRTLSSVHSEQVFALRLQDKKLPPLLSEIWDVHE
# Method: as §1
# Recombinant GST-LXRPβ ligand-binding domain (LBD; amino acids 156-461; NP009052; SEQ ID NO:4) was expressed in E. coli and purified via gluthatione-sepharose affinity chromatography. N-terminally biotinylated NCoA3 coactivator peptide (SEQ ID NO:7) was chemically synthesized (Eurogentec). Assays were done in 384 well format (final assay volume of 25 μL/well) in a Tris/HCl buffer (pH 6.8) containing KCl, bovine serum albumin, Triton-X-100 and 1 μM 24(S)-25-epoxycholesterol as LXR-prestimulating agonist. Assay buffer was provided and test articles (potential LXR inverse agonists) were titrated to yield final assay concentrations of 50 μM, 16.7 μM, 5.6 μM, 1.9 μM, 0.6 μM, 0.2 μM, 0.07 μM, 0.02 μM, 0.007 μM, 0.002 μM with one vehicle control. Finally, a detection mix was added containing anti GST-Tb cryptate (CisBio; 610SAXLB) and Streptavidin-XL665 (CisBio; 610SAXLB) as fluorescent donor and acceptor, respectively, as well as the coactivator peptide and LXRβ-LBD protein (SEQ ID NO:4). The reaction was mixed thoroughly, equilibrated for 1 h at 4° C. and vicinity of LXRβ and coactivator peptide was detected by measurement of fluorescence in a VictorX4 multiplate reader (PerkinElmer Life Science) using 340 nm as excitation and 615 and 665 nm as emission wavelengths. Assays were performed in triplicates.
# Final Assay Concentrations of Components:
# 240 mM KCl, 1 μg/μL BSA, 0.002% Triton-X-100, […] anti GST-Tb cryptate, 2.5 ng/μL Streptavidin-XL665, coactivator peptide (400 nM), LXRβ protein (530 μg/mL, i.e. 76 nM).
# [3] = target: T3, full length (FL) LXRβ (Homo sapiens, UniProt P55055, DUP175-175); assay: LXR Gal4 reporter transient transfection assay (FL-M2H Gal4β); type: cell-based; conditions: HEK293 cells, full length LXRβ; read-out: FL-M2H Gal4β (EC50 range)
# T3 construct: the full length (FL) proteins of LXRα (amino acids 1-447); NP005684; NP009052; expressed in transfected cells; host or cells: HEK293
# T3 sequence (P55055 with tags, fused parts or gaps DUP175-175): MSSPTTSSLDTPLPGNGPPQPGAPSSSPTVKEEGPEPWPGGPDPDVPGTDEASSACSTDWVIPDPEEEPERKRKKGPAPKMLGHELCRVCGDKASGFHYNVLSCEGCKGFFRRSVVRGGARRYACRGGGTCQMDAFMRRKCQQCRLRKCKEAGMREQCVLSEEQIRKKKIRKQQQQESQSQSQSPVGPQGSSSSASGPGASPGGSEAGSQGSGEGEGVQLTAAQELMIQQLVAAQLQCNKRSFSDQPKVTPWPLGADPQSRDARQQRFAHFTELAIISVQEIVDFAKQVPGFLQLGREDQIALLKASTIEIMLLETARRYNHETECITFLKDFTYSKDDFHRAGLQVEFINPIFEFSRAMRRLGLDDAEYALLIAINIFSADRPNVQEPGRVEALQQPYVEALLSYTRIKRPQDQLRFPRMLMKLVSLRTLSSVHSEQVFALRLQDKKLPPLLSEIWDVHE
# Method: as §1, §2, §3
smiles,measurement,setting,value
"Cc1ccc(S(=O)(=O)n2c(-c3cccc([C@@H]4C[C@H]4C(=O)O)c3)c(-c3ccsc3C#N)c3ncccc32)cc1 (relative stereo) [Example 4, trans-2-(3-(3-(2-Cyanothioahen-3-yl)-1-tosyl-1H-pyrrolo[3,2-b]pyridin-2-yl)phenyl)cyclopropane-1-carboxylic Acid]",EC50,[1],< 100 nM
same,EC50,[2],1000 to 10000 nM
same,EC50,[3],100 to 1000 nM
"Cc1cccc(C#N)c1-c1c(-c2cccc(-c3ccc(C(=O)O)cc3Cl)c2)n(S(=O)(=O)c2ccc(C(F)F)cc2)c2ccc(F)cc12 (single isomer, unassigned) [41/1, 2-chloro-3′-(3-(2-cyano-6-methylphenyl)-1-((4-(difluoro-methyl)phenyl)sulfonyl)-5-fluoro-1H-indol-2-yl)-[1,1′-biphenyl]-4-carboxylic Acid]",EC50,[1],< 100 nM
same,EC50,[2],< 100 nM
same,EC50,[3],< 100 nM
"Cc1cccc(C#N)c1-c1c(-c2cccc(-c3ccc(C(=O)O)cc3Cl)c2)n(S(=O)(=O)c2ccc(C(F)F)cc2)c2ccc(F)cc12 (single isomer, unassigned) [41/2, 2-chloro-3′-(3-(2-cyano-6-methylphenyl)-1-((4-(difluoro-methyl)phenyl)sulfonyl)-5-fluoro-1H-indol-2-yl)-[1,1′-biphenyl]-4-carboxylic Acid]",EC50,[1],< 100 nM
same,EC50,[2],< 100 nM
COC(=O)c1ccc(-c2cccc(-c3c(-c4c(C)cccc4C#N)c4cc(F)ccc4n3S(=O)(=O)c3ccc(C(F)F)cc3)c2)c(Cl)c1 [1/122],EC50,[1],< 100 nM
same,EC50,[2],100 to 1000 nM
same,EC50,[3],< 100 nM
N#Cc1cccc(C#N)c1-c1c(-c2cccc(Br)c2)n(S(=O)(=O)c2ccc(C(F)F)cc2)c2ccc(F)cc12 [1/139],EC50,[1],< 100 nM
same,EC50,[2],100 to 1000 nM
same,EC50,[3],< 100 nM
Cc1ccc(S(=O)(=O)n2c(-c3cccc(-c4ccc(CN)cc4Cl)c3)c(-c3ccsc3C#N)c3cc(F)ccc32)cc1 [2/1],EC50,[1],100 to 1000 nM
same,EC50,[2],100 to 1000 nM
same,EC50,[3],100 to 1000 nM
Cc1ccc(S(=O)(=O)n2c(-c3cccc(-c4ccc(C(C)(C)N)cc4Cl)c3)c(-c3ccsc3C#N)c3cc(F)ccc32)cc1 [2/2],EC50,[1],100 to 1000 nM
same,EC50,[2],100 to 1000 nM
same,EC50,[3],100 to 1000 nM
Cc1ccc(S(=O)(=O)n2c(-c3cccc(-c4cc(F)c(CO)c(S(C)(=O)=O)c4)c3)c(-c3ccsc3C#N)c3cc(F)ccc32)cc1 [2/16],EC50,[1],< 100 nM
same,EC50,[2],< 100 nM
same,EC50,[3],< 100 nM
Cc1ccc(S(=O)(=O)n2c(-c3cccc(-c4ccc(C(C)(C)C(=O)O)c(S(C)(=O)=O)c4)c3)c(-c3ccsc3C#N)c3cc(F)ccc32)cc1 [2/18],EC50,[1],100 to 1000 nM
same,EC50,[2],100 to 1000 nM
same,EC50,[3],< 100 nM
Cc1ccc(S(=O)(=O)n2c(-c3cccc(C4(C)CC4C(=O)O)c3)c(-c3ccsc3C#N)c3cc(F)ccc32)cc1 (centres unmarked) [3/1],EC50,[1],100 to 1000 nM
same,EC50,[2],100 to 1000 nM
same,EC50,[3],100 to 1000 nM
Cc1ccc(S(=O)(=O)n2c(-c3cccc(C4(C)CC4C(=O)O)c3)c(-c3ccsc3C#N)c3cc(F)ccc32)cc1 (centres unmarked) [3/2],EC50,[1],100 to 1000 nM
same,EC50,[2],1000 to 10000 nM
same,EC50,[3],< 100 nM
COc1sccc1-c1c(-c2cccc(N3CC(C(=O)O)C3)c2)n(S(=O)(=O)c2ccc(C)cc2)c2ccc(F)cc12 [3/3],EC50,[1],100 to 1000 nM
same,EC50,[2],1000 to 10000 nM
same,EC50,[3],100 to 1000 nM
Cc1ccc(S(=O)(=O)n2c(-c3cccc(N4CC(C(=O)O)C4)c3)c(-c3ccsc3C(F)F)c3cc(F)ccc32)cc1 [3/4],EC50,[1],100 to 1000 nM
same,EC50,[2],100 to 1000 nM
same,EC50,[3],< 100 nM
Cc1ccc(S(=O)(=O)n2c(-c3cccc(N4CC(C(=O)O)C4)c3)c(-c3ccsc3C=O)c3cc(F)ccc32)cc1 [3/5],EC50,[1],100 to 1000 nM
same,EC50,[2],100 to 1000 nM
same,EC50,[3],100 to 1000 nM
N#Cc1sccc1-c1c(-c2cccc(N3CC(C(=O)O)C3)c2)n(S(=O)(=O)c2ccc(OC(F)F)cc2)c2ccc(F)cc12 [3/11],EC50,[1],100 to 1000 nM
same,EC50,[2],1000 to 10000 nM
CC(O)(C(=O)O)c1ccc(-c2cccc(-c3c(-c4c(C#N)cccc4C#N)c4cc(F)ccc4n3S(=O)(=O)c3ccc(C(F)F)cc3)c2)c(Cl)c1 (centres unmarked) [11/60],EC50,[1],< 100 nM
same,EC50,[3],< 100 nM
"N#Cc1cccc(C#N)c1-c1c(-c2cccc(-c3ccc(C(=O)O)cc3Cl)c2)n(S(=O)(=O)c2ccc(C(F)F)cc2)c2cc(F)c(O)cc12 [Example 44, 2-Chloro-3′-(3-(2,6-dicyanophenyl)-1-((4-(difluoromethyl)phenyl)sulfonyl)-6-fluoro-5-hydroxy-1H-indol-2-yl)-[1,1′-biphenyl]-4-carboxylic Acid]",EC50,[2],100 to 1000 nM
same,EC50,[3],< 100 nM
